Assay results taken from patent EP0298064A2, “Birth control and diagnostic methods” (BIOCARB AB, priority 1987, dated 1989).

How the values were obtained:
667/9E9 = test: Inhibition by oligosaccharide of 667/9E9 staining of endometrial sections; assay type: binding, mice; settings: day 4 and 5 sections; addition of 1 mM
Method: Fixed or unfixed sections were hydrated in Dulbecco's phosphate buffer pH 7.2, containing 0.1% Bovine serum albumin and 0.05% Tween 20. All antibodies and sera were diluted in the same buffer. The sections were incubated for 30 minutes in a 1/20 dilution of normal non immune goat serum […] to prevent nonspecific binding. Monoclonal antibody supernatants were diluted to either 1/10 or 1/20. The sections were overlayered with 50 µl of the primary antibody and incubated overnight in a humidified atmosphere at 4°C. Following this the sections were rinsed 4 times in the buffer and again incubated for 30 minutes in 1/20 normal goat serum. They were then stained with the second antibody, a fluorescein isothiocyanate (FITC) conjugated goat anti-mouse IgM at a final dilution of 1/80. The sections were finally rinsed in the buffer and mounted in 2.5% DABCO (Boehringer Mannheim, Germany) in 80% glycerol.

[1] = system: blastocyst implantation in murine endometrial epithelium monolayers; test: In vitro implantation - mouse model (blastocysts co-cultured with endometrial monolayer); assay type: cell-based; settings: for Test impl/total (no. of blastocysts implanting/total no. of blastocysts added to the culture): test medium supplemented with 0.1 mM test oligosaccharide, control medium values stand in the neighbouring column
Method: In the mouse in vitro implantation system blastocyst implantation in murine endometrial epithelium monolayers was compared in 2 different media: the control medium (i.e. a medium which had supported more than 80% murine blastocyst formation from 2-cell embryos within 72 hours) and test medium (i.e. identical with the control medium except supplemented with 0.1 mM test oligosaccharide).
As control medium we used Earle's minimum essential medium (MEM) (Flow Lab), supplemented with penicillin-G 0.0075 g/l, streptomycin 0.075 g/l, glutamine 1 mM, fetal calf serum 5% and a vegetable protein source 2% (Ultrose-G, LKB, 2216-100). The final osmolality was adjusted to 285 mOsmol/kg and a pH of 7.4.
The mice were F1 hybrid B6D2F1/Bom (from the Laboratory of Animal Breeding and Research Center, Gl.Bomholdt Gȧrd, LTv., 8680 Ry, Denmark). Females aged 26 days and weighing 13-18 g and mature 6 months old males of previously proven fertility were used. They were housed in air-conditioned quarters with pelleted food and water available ad libitum and light between 7.30 a.m. and 7.30 p.m.
The female mice were superovulated with 5 I.U. FSH/LH (Antex, Leo Pharmaceuticals, Denmark) injected intraperitoneally at 9 a.m. day 1. 48 hours later (on day 3), ovulation was induced with 2.5 I.U. HCG. They were caged with males at 1 p.m. and left overnight. Mating was confirmed on the morning of day 4 by the presence of a vaginal plug.
Females were sacrificed at 9 a.m. on day 5. The oviducts were isolated and the 2-cell embryos flushed from the tubes using hand drawn glass pipettes.
Handling the 2-cells embryos outside the CO₂ incubator was carried out in the control medium supplemented with a HEPES buffer 20 mM (Flow Lab. 16-884-49).
After the oviducts were collected, the uterus of each mouse was isolated. The uterus was opened longitudinally and scraped with a rubber policeman on the uterine epithelial surface to col lect endometrial cells. These cells were handled in the HEPES buffered control medium as well. […]

implantation = test: In vivo inhibition of implantation in the mouse (intrauterine injection); set-up: species or system NMRI mice
Method: In this study the effect of structure A, injected into the uteri of naturally mated and unstimulated mice, was investigated.
10 weeks old NMRI mice were caged with NMRI males of previously proven fertility.
At plug day 4 (at 1 p.m.) the mice were anaestezed using mebumal. The abdomen was opened through a midline incision and the genital tract was identified. A 6-0 selk sutur was placed around the vaginal top intraperitoneally. 5µl of Earle's balanced salt solution (EBS) supplemented with 5 mmol/l of structure A or unsupplemented were injected into the uterine horns. The test group contained 20 mice who were injected with supplemented media containing structure A, where as the controls (15 mice) were injected with EBS unsupplemented medium.

Compound	inhibition of the staining of the endometrial sections by 667/9E9 (667/9E9)	inhibition of implantation of mouse embryos (in words) ([1]; oligosaccharide concentration of 0.1 mM)	Test impl/total (no. of blastocysts implanting/total no. of blastocysts added to the culture) [1]	inhibition of implantation in vivo (in words) (implantation; 5 mmol/l, 5µl into the uterine horns)	Impl/horn (implantation; 5µl EBS with 5 mmol/l injected into the uterine horns at plug day 4, 20 mice, controls 4.2)
CC(=O)N[C@H]1[C@H](O[C@H]2[C@@H](O)[C@@H](CO)O[C@@H](O[C@H]3[C@H](O)[C@@H](O)C(O)O[C@@H]3CO)[C@@H]2O)O[C@H](CO)[C@@H](O)[C@@H]1O[C@@H]1O[C@H](CO)[C@H](O)[C@H](O)[C@H]1O[C@@H]1O[C@@H](C)[C@@H](O)[C@@H](O)[C@@H]1O (stereo partly drawn) [structure A]	could be inhibited	inhibits the implantation of mouse embryos	134/228	inhibits implantation in vivo in the mouse	1.15
CC(=O)N[C@H]1[C@H](O[C@H]2[C@@H](O)[C@@H](CO)O[C@@H](O[C@H]3[C@H](O)[C@@H](O)C(O)O[C@@H]3CO)[C@@H]2O)O[C@H](CO)[C@@H](O)[C@@H]1O[C@@H]1O[C@H](CO)[C@H](O)[C@H](O)[C@H]1O (stereo partly drawn) [structure B, reference compound]			92/129		
